Results reported in ChEMBL document CHEMBL1151395, “Cytotoxic Flavones From Centaurea urvillei” (J Nat Prod, 1982).
Activity calls are given as the source filed them. No cut-off for these calls is given here.

Tested on: Fibroblast
Assay: Cytotoxicity against L-strain mouse fibroblasts at 0.05 mg/ml
Type: functional, cell-based

With `COc1c(O)cc2oc(-c3ccc(O)cc3)cc(=O)c2c1O` the Activity was “Active”.
